Laboratory results: patent US5504116A (Research Foundation of State University of New York, priority 1994, dated 1996)
“Also recorded” adds a separate entry of the source.

How the values were obtained:
preterm labor = details: cited from earlier work
[1] = target: T1, voltage-gated calcium channel (ICa) of uterine myocytes (Rattus norvegicus, UniProt P22002); experiment: whole-cell patch clamp, inward calcium current (ICa) of freshly dissociated pregnant rat uterine myocytes; format: cell-based
T1 construct: Individual myocytes were freshly isolated from 14 to 21-day pregnant uteri; endogenous in cells; host or cells: freshly dissociated longitudinal myometrial myocytes of 14 to 21-day pregnant Sprague-Dawley rats
Description: Holding potential, -80 mV; depolarized by 35 ms steps from -40 mV in 10 mV increments to 30 mV. […] Traces shown represent inward currents in response to applied voltage commands, outward K^+ currents having been blocked by the use of Cs^+ -filled electrode. […] (E) Current-voltage (I--V) relations of INa in panels (A--D). Symbols correspond to those under current traces. (F) I--V relations of ICa.
Hollow symbols for I'Ca /ICa in same myocytes used for I'Na /INa values. […] P=I'Na /INa.
All experiments in this study were performed under institutional guidelines for the care and use of laboratory animals (approval #92-055). Rats (Sprague-Dawley) were mated individually in the inventors' laboratory, and the duration of gestation was timed from the morning of the first discovery of cervical plugs. […] Individual myocytes were freshly isolated from 14 to 21-day pregnant uteri. Details of the methods of isolating the myocytes in a near-physiological condition, and associated patch-clamping can be found in other publications^7,15. Briefly, strips of isolated longitudinal myometrium were incubated in collagenase, and then subjected to mild mechanical disruption, until individual myocytes in desired amounts were obtained. For the work described herein, such single freshly dissociated myocytes were studied in the whole-cell configuration of patch-clamping^9.
The bath solution in which the individual myocytes were studied contained (in mM): NaCl, 135; KCl, 5.4; MgCl2, 1; CaCl2, 3; HEPES, 10; and glucose 5. […] The pipette solution contained (in mM): CsCl, 120; EGTA, 1; Na2 ATP, 2; HEPES, 10; K-pyruvate, 5; K-oxaloacetate, 5; and K-succinate, 5. All solutions were adjusted to pH 7.3; all experiments were done at room temperature of ca. 22° C. In the whole-cell mode of recording, rupture of the cell membrane allows access of the pipette solution to the cell interior. The reason for using CsCl rather than KCl is that the Cs^+ effectively blocks outward K^+ currents, and allows the inward currents to be isolated for study. […] The basic properties of the voltage-gated sodium and calcium channels are described in detail in Yoshino et al^7.
The inward currents have been isolated by using a pipette solution containing 120 mM Cs^+.

pregnant rats = experiment: effect on the duration of pregnancy in rats (intramuscular injections); format: in vivo, rat; details: for term (duration of gestation): control 22.33±0.16 days, p <0.01
[2] = dosages used in continuous epidural anesthesia for labor; cited from earlier work
fetuses and newborn rats = details: rat, in vivo
Description: To avoid possible post-term complications, it was sacrificed.

[3] = test system: K+ channels (outward potassium currents) of uterine myocytes; experiment: whole-cell patch clamp, outward potassium currents of late-pregnant rat uterine myocytes; format: cell-based
[4] = target: T1, voltage-gated calcium channel (ICa) of uterine myocytes; details: 2 μM nisoldipine; cited from earlier work

T1 sequence (P22002 whole entry): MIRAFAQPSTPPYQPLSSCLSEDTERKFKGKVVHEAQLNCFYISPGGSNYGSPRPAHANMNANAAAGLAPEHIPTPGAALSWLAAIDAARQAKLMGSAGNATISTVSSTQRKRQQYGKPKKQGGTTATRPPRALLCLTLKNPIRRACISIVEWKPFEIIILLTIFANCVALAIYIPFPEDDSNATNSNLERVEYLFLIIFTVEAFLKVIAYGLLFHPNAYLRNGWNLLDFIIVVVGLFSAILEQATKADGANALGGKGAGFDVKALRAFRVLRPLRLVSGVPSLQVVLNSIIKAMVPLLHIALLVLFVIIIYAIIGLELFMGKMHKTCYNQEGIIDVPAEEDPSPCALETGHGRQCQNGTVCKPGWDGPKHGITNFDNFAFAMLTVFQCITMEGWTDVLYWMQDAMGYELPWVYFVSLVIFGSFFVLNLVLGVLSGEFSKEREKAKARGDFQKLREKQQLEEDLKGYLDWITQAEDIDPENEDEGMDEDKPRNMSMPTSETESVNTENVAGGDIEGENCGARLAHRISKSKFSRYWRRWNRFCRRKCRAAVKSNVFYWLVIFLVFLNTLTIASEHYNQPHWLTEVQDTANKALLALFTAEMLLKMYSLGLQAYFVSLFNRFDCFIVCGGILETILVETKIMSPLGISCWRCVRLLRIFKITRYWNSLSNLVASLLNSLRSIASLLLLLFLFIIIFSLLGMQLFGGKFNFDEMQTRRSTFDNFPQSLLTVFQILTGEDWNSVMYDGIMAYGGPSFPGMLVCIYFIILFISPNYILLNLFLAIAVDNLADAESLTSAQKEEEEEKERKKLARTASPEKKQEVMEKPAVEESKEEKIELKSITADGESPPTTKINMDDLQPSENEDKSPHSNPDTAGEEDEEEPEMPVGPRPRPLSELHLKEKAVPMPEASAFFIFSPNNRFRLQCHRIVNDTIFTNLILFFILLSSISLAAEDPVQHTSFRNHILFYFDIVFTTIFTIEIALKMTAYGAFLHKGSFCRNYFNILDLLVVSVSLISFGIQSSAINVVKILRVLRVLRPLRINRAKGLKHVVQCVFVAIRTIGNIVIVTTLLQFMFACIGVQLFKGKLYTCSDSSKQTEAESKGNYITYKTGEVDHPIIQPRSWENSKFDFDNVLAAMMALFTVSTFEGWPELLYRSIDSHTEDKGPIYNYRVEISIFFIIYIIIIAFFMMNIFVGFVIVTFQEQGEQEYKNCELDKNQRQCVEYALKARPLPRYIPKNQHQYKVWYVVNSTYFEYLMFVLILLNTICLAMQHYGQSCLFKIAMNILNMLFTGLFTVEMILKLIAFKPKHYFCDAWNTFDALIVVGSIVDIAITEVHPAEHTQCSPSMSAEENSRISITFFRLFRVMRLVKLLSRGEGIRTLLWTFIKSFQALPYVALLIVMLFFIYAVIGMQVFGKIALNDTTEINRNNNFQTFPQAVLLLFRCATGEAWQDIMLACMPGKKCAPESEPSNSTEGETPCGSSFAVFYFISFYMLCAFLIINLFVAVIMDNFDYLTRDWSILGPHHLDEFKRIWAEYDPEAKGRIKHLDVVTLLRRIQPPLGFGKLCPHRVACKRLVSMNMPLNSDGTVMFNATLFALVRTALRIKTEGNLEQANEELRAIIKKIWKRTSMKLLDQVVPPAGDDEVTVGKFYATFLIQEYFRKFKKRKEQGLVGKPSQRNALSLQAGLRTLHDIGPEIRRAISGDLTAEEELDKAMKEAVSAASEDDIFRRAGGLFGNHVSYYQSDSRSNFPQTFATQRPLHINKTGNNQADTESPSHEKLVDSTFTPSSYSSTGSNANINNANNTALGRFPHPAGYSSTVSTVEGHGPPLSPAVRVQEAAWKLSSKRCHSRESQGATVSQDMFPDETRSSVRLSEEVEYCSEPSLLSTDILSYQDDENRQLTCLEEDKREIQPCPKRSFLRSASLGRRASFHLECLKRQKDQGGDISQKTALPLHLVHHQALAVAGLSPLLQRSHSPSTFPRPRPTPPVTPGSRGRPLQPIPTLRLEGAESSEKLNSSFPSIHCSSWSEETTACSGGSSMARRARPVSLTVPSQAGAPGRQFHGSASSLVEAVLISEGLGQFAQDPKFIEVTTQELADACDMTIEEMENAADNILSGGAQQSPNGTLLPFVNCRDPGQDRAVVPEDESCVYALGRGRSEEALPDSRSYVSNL
T1 sequence (P54290 25-944 partner limits assumed): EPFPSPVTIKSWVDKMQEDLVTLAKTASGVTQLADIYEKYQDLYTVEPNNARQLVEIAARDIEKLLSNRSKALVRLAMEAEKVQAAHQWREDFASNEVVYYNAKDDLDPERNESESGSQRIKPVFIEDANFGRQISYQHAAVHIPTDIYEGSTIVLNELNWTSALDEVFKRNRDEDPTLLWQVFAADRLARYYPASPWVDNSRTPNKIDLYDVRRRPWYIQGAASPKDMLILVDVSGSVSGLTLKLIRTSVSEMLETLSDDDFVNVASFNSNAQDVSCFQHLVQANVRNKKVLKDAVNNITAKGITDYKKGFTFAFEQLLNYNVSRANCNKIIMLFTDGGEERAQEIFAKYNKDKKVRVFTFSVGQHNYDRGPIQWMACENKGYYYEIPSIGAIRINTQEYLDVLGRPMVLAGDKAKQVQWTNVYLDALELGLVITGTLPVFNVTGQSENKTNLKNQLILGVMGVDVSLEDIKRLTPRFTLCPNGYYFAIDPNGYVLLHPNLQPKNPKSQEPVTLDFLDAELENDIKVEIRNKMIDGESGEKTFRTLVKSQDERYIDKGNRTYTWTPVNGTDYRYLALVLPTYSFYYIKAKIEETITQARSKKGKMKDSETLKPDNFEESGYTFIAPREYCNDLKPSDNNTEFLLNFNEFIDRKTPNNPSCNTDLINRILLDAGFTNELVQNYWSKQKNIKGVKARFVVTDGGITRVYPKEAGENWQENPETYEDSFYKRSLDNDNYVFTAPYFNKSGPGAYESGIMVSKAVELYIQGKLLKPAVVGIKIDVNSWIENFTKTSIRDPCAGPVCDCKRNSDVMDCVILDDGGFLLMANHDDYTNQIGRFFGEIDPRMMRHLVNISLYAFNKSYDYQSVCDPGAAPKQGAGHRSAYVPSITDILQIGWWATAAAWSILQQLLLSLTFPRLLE
T1 sequence (P54290 945-1091 partner limits assumed): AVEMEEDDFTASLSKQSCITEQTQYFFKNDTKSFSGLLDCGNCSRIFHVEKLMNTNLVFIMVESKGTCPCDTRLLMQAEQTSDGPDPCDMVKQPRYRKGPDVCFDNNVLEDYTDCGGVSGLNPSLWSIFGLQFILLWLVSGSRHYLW

CC(NCCc1ccc(O)cc1)C(O)c1ccc(O)cc1 (stereo not shown) [ritodrine]
duration of effectiveness in preterm labor (preterm labor): effective for only a few days
effect on pregnancy outcome (preterm labor): does not affect the pregnancy outcome
side-effects (preterm labor): can produce cardiovascular side-effects in some recipients

CCN(CC)CC(=O)Nc1c(C)cccc1C [lidocaine]
ICa, effect in words ([1]; 0.02 mM lidocaine, 5 min (FIG. 3A)): no detectable difference
ICa, effect in words ([1]; 0.1 mM and 0.2 mM lidocaine, 5 min (FIG. 3B, C)): slight reductions of the tail currents
Ca2+ currents, effect in words ([1]; 0.5 mM lidocaine (FIG. 2D)): reduced slightly
ICa and tail-current, effect in words ([1]; 1 mM lidocaine, 3 min (FIG. 2B)): only slightly reduced
remaining activity at 1000 µM ([1]; 0.05 h, read-out: ICa relative to control (pre-lidocaine)): 93%
remaining activity at 500 µM ([1]; 0.05 h, read-out: tail ICa remaining relative to recovery state (C)): 78%
effects on myometrial K+ or Ca2+ channels at concentrations blocking sodium channels ([1]; Ca2+ channels, uterine myocytes): no effects
effect on ICa, in words ([1]; concentrations of lidocaine up to 0.5 mM (FIG. 4)): very little effect
effect on coexisting voltage-gated calcium channels, summary in words ([1]; summary of the examples): very little effect
day of delivery (pregnant rats; 2 mg/kg i.m. twice daily, two rats, both): delivered on the 23rd day
duration of pregnancy, single rat (pregnant rats; 6 mg/kg i.m. twice daily, one rat, sacrificed): continued into the 26th day
term (duration of gestation) (pregnant rats; 2, 4 or 6 mg/kg i.m. twice daily from day-20, 8 rats): 23.63 ± 0.39 days
term (duration of gestation) (pregnant rats; 4 or 6 mg/kg i.m. twice daily from day-20, 6 rats): 23.83 ± 0.40 days
difference in duration of gestation versus control (pregnant rats; i.m. lidocaine, 22-day gestation): 1.5 days
lengthening of the term / prolongation of gestation (pregnant rats; i.m. lidocaine, pregnant rats): 7%
serious side-effects on either the mother or the fetus [2]: absence of serious side-effects
motor activities of fetuses at birth or newborn several hours after birth (fetuses and newborn rats): no discernable differences
condition of fetuses at autopsy (fetuses and newborn rats; 6 mg/kg): healthy and indistinguishable from those of control newborns, except for their larger sizes
effects on myometrial K+ or Ca2+ channels at concentrations blocking sodium channels ([3]; K+ channels, uterine myocytes): no effects
effect on coexisting potassium channels, summary in words ([3]; summary of the examples): very little effect
effect on outward K+ current ([3]; up to 0.5 mM lidocaine, 5 min, late-pregnant uteri (FIG. 1)): insignificant effects; also recorded: rather minor

COC(=O)C1=C(C)NC(C)=C(C(=O)OCC(C)C)C1c1ccccc1[N+](=O)[O-] (stereo not shown) [nisoldipine]
block of Ca2+ current [4]: blocked
